In brackets after ≈: the same amount, converted by molar mass. Activity calls are given as the source filed them. The rule behind the calls is not given here.
How the values were obtained:
[1] = tested on: HaCaT; experiment: Cytotoxicity against human HaCaT cells assessed as truncation and reduction in cytoskeleton at 500 ug/ml incubated for 24 hrs by Alexa Fluor […] phalloidin-FITC/Hoescht dye staining based fluorescence microscopic analysis; assay type: cell-based
[2] = tested on: Acinetobacter baumannii; experiment: Antibacterial activity against Acinetobacter baumannii ATCC 19606 assessed as reduction in bacterial growth at sublethal concentrations measured after 20 serial passages by broth microdilution method; assay type: functional, organism-based; details: ATCC 19606 = CIP 70.34 = JCM 6841
[3] = Stability of the compound in rabbit tear fluid measured after 2 hrs by UPLC-MS analysis; assay type: ADME, Oryctolagus cuniculus
[4] = tested on: Candida albicans; experiment: Antifungal activity against Candida albicans assessed as reduction in fungal growth incubated for 24 hrs by broth microdilution method; assay type: functional
[5] = tested on: T-cell; experiment: Immunogenicity in human PBL T cells assessed as increase in IFN-gamma production at 62.5 or 125 ug/ml incubated for 24 hrs by ELISA; assay type: ADME, cell-based
[6] = tested on: Pseudomonas aeruginosa; experiment: Antibacterial activity against Pseudomonas aeruginosa assessed as reduction in bacterial growth incubated for 24 hrs by broth microdilution method; assay type: functional
[7] = tested on: Oryctolagus cuniculus; experiment: Induction of reepithelialization in injured New Zealand white rabbit cornea assessed as wound healing administered topically for qid measured at day 8 post-injury by fluorescein sodium staining based microscopic imaging analysis (reference value: 3.8 %); assay type: organism-based; details: in vivo, topical_or_ocular
[8] = tested on: Staphylococcus aureus; experiment: Antibacterial activity against methicillin-sensitive Staphylococcus aureus assessed as reduction in bacterial growth incubated for 24 hrs by broth microdilution method; assay type: functional
[9] = tested on: Enterococcus; experiment: Antibacterial activity against vancomycin-resistant Enterococcus assessed as reduction in bacterial growth incubated for 24 hrs by broth microdilution method; assay type: functional
[10] = tested on: NHDF; experiment: Cytotoxicity against HDF cells assessed as truncation and reduction in cytoskeleton at 500 ug/ml incubated for 24 hrs by Alexa Fluor […] phalloidin-FITC/Hoescht dye staining based fluorescence microscopic analysis; assay type: cell-based; details: human
[11] = tested on: Escherichia coli; experiment: Induction of pore formation in intact Escherichia coli 1004 cell membrane assessed as SG uptake at 2 times MIC by SG dye based fluorescence based assay; assay type: organism-based
[12] = tested on: Acinetobacter baumannii; experiment: Antibacterial activity against multidrug-resistant Acinetobacter baumannii assessed as reduction in bacterial growth incubated for 24 hrs by broth microdilution method; assay type: functional
[13] = tested on: T-cell; experiment: Immunogenicity in human PBL T cells assessed as increase in IL-4 production at 62.5 or 125 ug/ml incubated for 24 hrs by ELISA; assay type: ADME, cell-based
[14] = tested on: Oryctolagus cuniculus; experiment: Induction of reepithelialization in injured New Zealand white rabbit cornea assessed as wound healing administered topically for qid measured at day 6 post-injury by fluorescein sodium staining based microscopic imaging analysis (reference value: 24.1 +/- 8.5 %); assay type: organism-based; details: in vivo, topical_or_ocular
[15] = tested on: Escherichia coli; experiment: Antibacterial activity against Escherichia coli 1004 assessed as reduction in bacterial viability at 2 or 4 times MIC incubated up to 24 hrs in MHB medium followed by reincubation on MH agar plate for 24 to 48 hrs by time kill kinetics assay; assay type: functional, organism-based
[16] = Hemolytic activity against human erythrocytes assessed as hemoglobin release incubated for 1 hr; assay type: ADME, cell-based, Erythrocyte; details: read-out: HD50
[17] = Stability of the compound in rabbit tear fluids assessed as parent compound remaining measured after 4 hrs by UPLC-MS analysis; assay type: ADME, Oryctolagus cuniculus; details: tear fluid, read-out: Stability
[18] = tested on: Oryctolagus cuniculus; experiment: Induction of reepithelialization in injured New Zealand white rabbit cornea assessed as wound healing administered topically for qid measured at day 7 post-injury by fluorescein sodium staining based microscopic imaging analysis (reference value: 8.6 %); assay type: organism-based; details: in vivo, topical_or_ocular
[19] = tested on: T-cell; experiment: Immunogenicity in human PBL T cells assessed as increase in IL-2 production at 62.5 or 125 ug/ml incubated for 24 hrs by ELISA; assay type: ADME, cell-based
[20] = tested on: Staphylococcus aureus; experiment: Antibacterial activity against methicillin-resistance Staphylococcus aureus assessed as reduction in bacterial growth incubated for 24 hrs by broth microdilution method; assay type: functional
[21] = tested on: Enterococcus faecalis; experiment: Antibacterial activity against vancomycin-resistant Enterococcus faecalis 1010 assessed as log10 reduction in bacterial viability at 2 to 4 times MIC incubated for 30 mins in MHB medium followed by reincubation on MH agar plate for 24 to 48 hrs by time kill kinetics analysis; assay type: functional
[22] = tested on: Enterobacteriaceae; experiment: Antibacterial activity against Carbapenem-Resistant Enterobacteriaceae assessed as reduction in bacterial growth incubated for 24 hrs by broth microdilution method; assay type: functional
[23] = tested on: Acinetobacter baumannii; experiment: Antibacterial activity against Acinetobacter baumannii 1001 assessed as reduction in bacterial viability at 2 or 4 times MIC incubated up to 24 hrs in MHB medium followed by reincubation on MH agar plate for 24 to 48 hrs by time kill kinetics assay; assay type: functional, organism-based
[24] = tested on: Enterococcus faecalis; experiment: Resistance index, ratio of MIC for vancomycin-resistant Enterococcus faecalis 1010 measured after 18 serial passages by broth microdilution method to MIC for vancomycin-resistant Enterococcus faecalis 1010 incubated for 24 hrs by broth microdilution method; assay type: functional
[25] = tested on: Enterococcus faecalis; experiment: Induction of pore formation in intact vancomycin-resistant Enterococcus faecalis 1002 cell membrane assessed as SG uptake at 2 times MIC by SG dye based fluorescence based assay; assay type: organism-based
[26] = tested on: Klebsiella pneumoniae; experiment: Antibacterial activity against Klebsiella pneumoniae 1008 assessed as reduction in bacterial viability at 2 or 4 times MIC incubated up to 24 hrs in MHB medium followed by reincubation on MH agar plate for 24 to 48 hrs by time kill kinetics assay; assay type: functional, organism-based
[27] = tested on: T-cell; experiment: Immunogenicity in human PBL T cells assessed as increase in IL-5 production at 62.5 or 125 ug/ml incubated for 24 hrs by ELISA; assay type: ADME, cell-based
[28] = tested on: Enterococcus faecalis; experiment: Antibacterial activity against vancomycin-resistant Enterococcus faecalis 1002 assessed as log10 reduction in bacterial viability at 2 to 4 times MIC incubated for 30 mins in MHB medium followed by reincubation on MH agar plate for 24 to 48 hrs by time kill kinetics analysis; assay type: functional
[29] = tested on: Oryctolagus cuniculus; experiment: Induction of reepithelialization in injured New Zealand white rabbit cornea assessed as wound healing administered topically for qid measured at day 4 post-injury by fluorescein sodium staining based microscopic imaging analysis (reference value: 48.4 +/- 7.6 %); assay type: organism-based; details: in vivo, topical_or_ocular
[30] = tested on: Enterococcus faecalis; experiment: Antibacterial activity against vancomycin-resistant Enterococcus faecalis ATCC 29212 assessed as log10 reduction in bacterial viability at 2 to 4 times MIC incubated for 30 mins in MHB medium followed by reincubation on MH agar plate for 24 to 48 hrs by time kill kinetics analysis; assay type: functional
[31] = tested on: Oryctolagus cuniculus; experiment: Induction of reepithelialization in injured New Zealand white rabbit cornea assessed as wound healing administered topically for qid measured at day 5 post-injury by fluorescein sodium staining based microscopic imaging analysis (reference value: 39.8 +/- 6.2 %); assay type: organism-based; details: in vivo, topical_or_ocular
[32] = Cytotoxicity against HDF cells assessed as cell viability at 500 ug/ml incubated for 24 hrs by MTS assay relative to control; assay type: cell-based; details: human, HDF cells (NHDF, human dermal fibroblasts); read-out: Activity
[33] = tested on: Oryctolagus cuniculus; experiment: Induction of reepithelialization in injured New Zealand white rabbit cornea assessed as wound healing at 0.3% administered topically for qid measured at day 1 post-injury by fluorescein sodium staining based microscopic imaging analysis (reference value: 89.9 +/- 2.9 %); assay type: organism-based; details: in vivo, topical_or_ocular
[34] = tested on: Oryctolagus cuniculus; experiment: Induction of reepithelialization in injured New Zealand white rabbit cornea assessed as wound healing administered topically for qid measured at day 3 post-injury by fluorescein sodium staining based microscopic imaging analysis (reference value: 63.9 +/- 5.3 %); assay type: organism-based; details: in vivo, topical_or_ocular
[35] = tested on: Oryctolagus cuniculus; experiment: Induction of reepithelialization in injured New Zealand white rabbit cornea assessed as wound healing administered topically for qid measured at day 2 post-injury by fluorescein sodium staining based microscopic imaging analysis (reference value: 76.6 +/- 4.5 %); assay type: organism-based; details: in vivo, topical_or_ocular
[36] = tested on: Acinetobacter baumannii; experiment: Induction of pore formation in intact Acinetobacter baumannii 1001 cell membrane assessed as SG uptake at 2 times MIC by SG dye based fluorescence based assay; assay type: organism-based
[37] = tested on: Enterococcus faecalis; experiment: Induction of pore formation in intact vancomycin-resistant Enterococcus faecalis ATCC 29212 cell membrane assessed as SG uptake at 2 times MIC by SG dye based fluorescence based assay; assay type: organism-based

Compound: CC[C@H](C)[C@H](NC(=O)CN)C(=O)NCC(=O)N[C@@H](C)C(=O)N[C@H](C(=O)N[C@@H](CC(C)C)C(=O)NCCC[C@@H](CN)C(=O)N[C@H](C(=O)N[C@@H](CC(C)C)C(=O)N[C@H](C(=O)N[C@H](C(=O)NCC(=O)N[C@@H](CC(C)C)C(=O)N1CCC[C@H]1C(=O)N[C@@H](C)C(=O)N[C@@H](CC(C)C)C(=O)N[C@H](C(=O)N[C@@H](CO)C(=O)N[C@@H](Cc1c[nH]c2ccccc12)C(=O)N[C@H](C(=O)N[C@@H](CCCCN)C(=O)N[C@@H](CCCNC(=N)N)C(=O)NCCC[C@@H](CN)C(=O)N[C@@H](CCCNC(=N)N)C(=O)N[C@@H](CCC(N)=O)C(=O)N[C@@H](CCC(N)=O)C(N)=O)[C@@H](C)CC)[C@@H](C)CC)[C@@H](C)O)[C@@H](C)O)C(C)C)C(C)C
- Activity [1]: Toxic
- Activity [2]: Active
- Stability [3]: Stable
- MIC [4]: 16 to 32 µg/mL (≈ 5.62 to 11.2 µM)
- MIC50 [4]: 32 µg/mL (≈ 11.2 µM)
- Activity [5]: Non-Toxic
- MIC [6]: 8 to 64 µg/mL (≈ 2.81 to 22.5 µM)
- MIC50 [6]: 32 µg/mL (≈ 11.2 µM)
- Activity [7]: 5.2%
- MIC [8]: 16 to 64 µg/mL (≈ 5.62 to 22.5 µM)
- MIC50 [8]: 32 µg/mL (≈ 11.2 µM)
- MIC [9]: 4 to 16 µg/mL (≈ 1.41 to 5.62 µM)
- MIC50 [9]: 8 µg/mL (≈ 2.81 µM)
- Activity [10]: Toxic
- Activity [11]: Active
- MIC [12]: 4 to 8 µg/mL (≈ 1.41 to 2.81 µM)
- MIC50 [12]: 6 µg/mL (≈ 2.11 µM)
- Activity [13]: Non-Toxic
- Activity [14]: 30.2%
- Activity [15]: Active
- HC50 at 1 h [16]: 175 µg/mL
- remaining at 4 h [17]: 87.9%
- Activity [18]: 12.6%
- Activity [19]: Non-Toxic
- MIC50 [20]: 32 µg/mL (≈ 11.2 µM)
- log(activity) [21]: >5
- MIC [22]: 4 to 128 µg/mL (≈ 1.41 to 45 µM)
- MIC50 [22]: 16 µg/mL (≈ 5.62 µM)
- Activity [23]: Active
- Ratio [24]: 16
- Activity [25]: Active
- Activity [26]: Active
- Activity [27]: Non-Toxic
- log(activity) [28]: >5
- Activity [29]: 50.1%
- log(activity) [30]: >5
- Activity [31]: 42.9%
- viability at 24 h, 500 ug/ml [32]: 90.7%
- Activity [33]: 90.9%
- Activity [34]: 63.6%
- Activity [35]: 75.4%
- Activity [36]: Active
- Activity [37]: Active

Source: ChEMBL document CHEMBL4402583, “Rational Substitution of ε-Lysine for α-Lysine Enhances the Cell and Membrane Selectivity of Pore-Forming Melittin” (J Med Chem, 2020)
